# In publication PMC12559008 (Nature cancer, 2025):
# Assays:
# [1] = pKa measurement by pH titration; assay type: physicochemical; settings: pH probe, titration of SM-AZO-PTX and SM-AZE-PTX
# [2] = B6129SF1/J, mouse, in vivo, iv, 24 h
# in vivo = settings: B6129SF1/J, mouse, iv
# [3] = mouse, in vivo
# [4] = MTD dose stated for CPT comparators; settings: mouse, in vivo, intravenous
compound,measurement,setting,value
"C1CCCNCC1 [AZE, Azepane]",pKa,[1],~6.98
"Nc1ccn([C@@H]2O[C@H](CO)[C@@H](O)C2(F)F)c(=O)n1 [GEM, gemcitabine]","Injected GEM dose (%), Tumor",[2],0.21%
same,half-life,in vivo,23.4 ± 3.6 min
Taxol,"myelosuppression and neuropathy (sternums and dorsal root ganglia), in words",[3],severely damaged sternums and dorsal root ganglia tissues
"CC[C@@]1(O)C(=O)OCc2c1cc1n(c2=O)Cc2cc3ccccc3nc2-1 [Free CPT, Camptothecin]",MTD,[4],5 mg/kg
"C1CCCNCCC1 [AZO, Azocane]",pKa,[1],5.75
